From PMC7070036, “An amber obligate active site-directed ligand evolution technique for phage display” (Nature Communications, 2020)
Values joined by “and” are separate entries in the source; they are usually repeats but may differ in a detail not shown here. Equal entries are not always repeated. Starred links: 1 amine or outer side, 2 acyl side, 3 side chain; linkers in the order of their positions; H or OH if unused. Non-standard residues stand in square brackets, D forms with d. Residues, ends and D or L forms follow the SMILES beside them. Lys(thiomyristoyl) = CCCCCCCCCCCCCC(=S)NCCCC[C@H](N)C(=O)O; X1 = CCCC(=S)NCCCC[C@H](N[*:1])C(=O)[*:2]; Abu = CC[C@H](N)C(=O)O

Tests used:
SIRT2 [1] = biological target: T1, SIRT2 (Homo sapiens, UniProt Q8IXJ6); experiment: Continuous fluorogenic sirtuin inhibition assay, SIRT2 (tBuK peptides, TB); type: biochemical; settings: for IC50: 0.25 µM SIRT2, 1 mM NAD+, 5 µM fluorogenic substrate, 15 min preincubation, n = 2, read-out: IC50; for %Activity, SIRT2 / activity at 0.5 µM / activity at 1 µM / activity at 2 µM / activity at 4 µM / activity at 50 µM / activity at 0.0064 µM / activity at 0.032 µM: single trials
T1 sequence (Q8IXJ6 1-389): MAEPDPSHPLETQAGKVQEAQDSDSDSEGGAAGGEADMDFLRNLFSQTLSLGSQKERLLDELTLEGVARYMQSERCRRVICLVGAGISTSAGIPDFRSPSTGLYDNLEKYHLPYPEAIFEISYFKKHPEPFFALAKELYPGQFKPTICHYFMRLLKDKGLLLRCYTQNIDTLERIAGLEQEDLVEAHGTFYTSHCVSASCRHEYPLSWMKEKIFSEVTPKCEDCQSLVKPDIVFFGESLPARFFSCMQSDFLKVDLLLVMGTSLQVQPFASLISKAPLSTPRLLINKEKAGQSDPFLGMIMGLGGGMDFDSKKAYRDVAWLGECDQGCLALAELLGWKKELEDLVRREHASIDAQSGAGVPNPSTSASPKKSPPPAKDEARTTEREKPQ
Protocol: The continuous assay for comparing isoform specificity of S2P04 was performed using the universal fluorogenic sirtuin substrate described by Schuster et al.[41]. Briefly, the inhibition reactions were performed in 50-µL volumes at 37 °C in black, half-area, 96-well plates. The sirtuin enzyme (0.25 µM) was preincubated with different concentrations of the peptide S2P04 (0.0064–50 µM for SIRT1 and SIRT2, 0.5–100 µM for SIRT3) or TB (0.16–150 µM for SIRT1–SIRT3), and 1 mM NAD^+ in assay buffer (20 mM Tris, pH 7.8, 150 mM NaCl, 5 mM MgCl2, and 1 mM DTT) for 15 min. Following incubation, the reaction started with the addition of the fluorogenic substrate (5 µM), and product formation was monitored by measuring the fluorescence intensity every 20 s for 5 min (SIRT2) or 30 min (SIRT1 and SIRT3) in a BioTek Synergy H1 microplate reader at λex = 320 nm and λem = 408 nm (gain = 130 and read height = 7 mm). Initial rates of product formation were determined by a linear regression of the plot of fluorescence intensity vs. time and normalized relative to 0% (max inhibitor) and 100% (no inhibitor) controls. The assay was repeated to determine the IC50 values of all BuK peptides for SIRT2. IC50 values were determined by nonlinear regression of the plot of the normalized initial rate vs. inhibitor concentration using GraphPad Prism. The determined IC50 values are provided in Supplementary Table 2, and inhibition curves can be seen in Supplementary Fig. 20.

SIRT2 [2] = biological target: T1, SIRT2; experiment: SIRT2 inhibition assay for thiomyristoyl peptides; type: biochemical; settings: for IC50: 10 nM SIRT2, 15 min preincubation, 5 µM substrate, n = 2
Protocol: Assays were performed in 40-µL volumes at 37 °C in black, 384-well plates. […] Following incubation, the reaction started with the addition of the fluorogenic substrate (5 µM), and product formation was monitored by measuring the fluorescence intensity every 20 s for 5 min (SIRT2) in a BioTek Synergy H1 microplate reader at λex = 320 nm and λem = 408 nm (gain = 130 and read height = 7 mm). Initial rates were determined using the plot of fluorescence vs. time for linear portions of each curve. IC50 values were then determined using GraphPad Prism to fit a nonlinear regression to the normalized rates vs. inhibitor concentration.

Compound	IC50 (SIRT2 [1]) [nM]	activity at 0.5 µM (SIRT2 [1]; inhibitor 0.5 µM) [%]	activity at 1 µM (SIRT2 [1]; inhibitor 1 µM) [%]	activity at 2 µM (SIRT2 [1]; inhibitor 2 µM) [%]	activity at 0.0064 µM (SIRT2 [1]; inhibitor 0.0064 µM) [%]	%Activity, SIRT2 (SIRT2 [1]; inhibitor 0.0064 µM, 0.0064 µM)	activity at 0.032 µM (SIRT2 [1]; inhibitor 0.032 µM) [%]	%Activity, SIRT2 (SIRT2 [1]; inhibitor 0.032 µM, 0.032 µM) [%]	%Activity, SIRT2 (SIRT2 [1]; inhibitor 0.5 µM, 0.5 µM)	%Activity, SIRT2 (SIRT2 [1]; inhibitor 1 µM, 1 µM)	%Activity, SIRT2 (SIRT2 [1]; inhibitor 2 µM, 2 µM) [%]	%Activity, SIRT2 (SIRT2 [1]; inhibitor 4 µM, 4 µM)	%Activity, SIRT2 (SIRT2 [1]; inhibitor 50 µM, 50 µM)	also measured
CCCC(=S)NCCCC[C@H](NC(=O)[C@@H](NC(=O)[C@@H](NC(=O)[C@@H](N)CC)[C@@H](C)O)C(C)C)C(=O)N[C@H](C(N)=O)[C@@H](C)CC [S2P04(Abu)-5-tBuK] (H-[Abu]TV[X1]I-NH2)	119 ± 3	10	6.61	4.66	–	–	–	–	–	–	–	–	–	%Activity, SIRT2 (SIRT2 [1]; inhibitor 0.0064 µM, listed as S2P04-5-Abu-tBu, 0.0064 µM): 97.908% and 63.307%; %Activity, SIRT2 (SIRT2 [1]; inhibitor 0.032 µM, listed as S2P04-5-Abu-tBu, 0.032 µM): 79.071% and 55.539%; %Activity, SIRT2 (SIRT2 [1]; inhibitor 0.5 µM, listed as S2P04-5-Abu-tBu, 0.5 µM): 11.559%; %Activity, SIRT2 (SIRT2 [1]; inhibitor 1 µM, listed as S2P04-5-Abu-tBu, 1 µM): 4.9054%; %Activity, SIRT2 (SIRT2 [1]; inhibitor 2 µM, listed as S2P04-5-Abu-tBu, 2 µM): 4.1695%; activity at 4 µM (SIRT2 [1]; inhibitor 4 µM): 3.95%; %Activity, SIRT2 (SIRT2 [1]; inhibitor 4 µM, listed as S2P04-5-Abu-tBu, 4 µM): 3.2715%; activity at 50 µM (SIRT2 [1]; inhibitor 50 µM): 1.5%; %Activity, SIRT2 (SIRT2 [1]; inhibitor 50 µM, listed as S2P04-5-Abu-tBu, 50 µM): 1.1019%
CCCC(=S)NCCCC[C@H](NC(=O)[C@@H](NC(=O)[C@@H](NC(=O)[C@@H](N)CS)[C@@H](C)O)C(C)C)C(=O)N[C@H](C(N)=O)[C@@H](C)CC [S2P04-5-tBuK] (H-CTV[X1]I-NH2)	136 ± 29	8.86	6.24	5	101	119.97%	87.2	96.038	9.5933%	6.7307%	6.0395	-0.2382% and 0.3719%	0.8865%	activity at 50 µM (SIRT2 [1]; inhibitor 50 µM): 1.19%
CCCCCCCCCCCCCC(=S)NCCCC[C@H](NC(=O)[C@@H](NC(=O)[C@@H](NC(=O)[C@H](CS)NC(=O)[C@@H](N)[C@@H](C)O)[C@@H](C)O)C(C)C)C(=O)N[C@H](C(=O)NCC(N)=O)[C@@H](C)CC [S2P04-tMyK] (H-TCTV[Lys(thiomyristoyl)]IG-NH2)	–	–	–	–	–	–	–	–	–	–	–	–	–	IC50 (SIRT2 [2]): 13 ± 4 nM; activity at 0.000466362 µM (SIRT2 [2]; inhibitor 0.466362 nM): 95.3%; %Activity, SIRT2 (SIRT2 [2]; inhibitor 0.466362 nM, 0.000466362 µM): 104.732%; activity at 0.000932724 µM (SIRT2 [2]; inhibitor 0.932724 nM): 97.9%; %Activity, SIRT2 (SIRT2 [2]; inhibitor 0.932724 nM, 0.000932724 µM): 100.382%; %Activity, SIRT2 (SIRT2 [2]; inhibitor 1.86545 nM, 0.00186545 µM): 87.5221% and 108.94%; %Activity, SIRT2 (SIRT2 [2]; inhibitor 3.7309 nM, 0.0037309 µM): 78.4292% and 108.338%; activity at 0.0074618 µM (SIRT2 [2]; inhibitor 7.4618 nM): 77.8%; %Activity, SIRT2 (SIRT2 [2]; inhibitor 7.4618 nM, 0.0074618 µM): 66.6253%; %Activity, SIRT2 (SIRT2 [2]; inhibitor 14.9236 nM, 0.0149236 µM): 48.6419% and 27.9749%; activity at 0.0596944 µM (SIRT2 [2]; inhibitor 59.6944 nM): 11%; %Activity, SIRT2 (SIRT2 [2]; inhibitor 59.6944 nM, 0.0596944 µM): 20.9299%; %Activity, SIRT2 (SIRT2 [2]; inhibitor 955.11 nM, 0.95511 µM): -1.089% and 1.089%
CCCC(=S)NCCCC[C@H](NC(=O)[C@@H](NC(=O)[C@@H](NC(=O)[C@@H](N)CS)[C@@H](C)O)C(C)C)C(=O)N[C@H](C(=O)N[C@@H](CO)C(=O)N[C@@H](CC(C)C)C(N)=O)[C@@H](C)O [S2P03-tBuK] (H-CTV[X1]TSL-NH2)	68 ± 5	–	–	1.28	98.4	108.62%	83.5	92.999	2.6542% and 5.9955%	1.6503% and 4.1115%	2.2764	-0.1595% and 1.9208%	2.8758% and -0.3176%	–
CCCC(=S)NCCCC[C@H](NC(=O)[C@@H](NC(=O)[C@@H](NC(=O)[C@H](CS)NC(C)=O)[C@@H](C)O)C(C)C)C(=O)N[C@H](C(N)=O)[C@@H](C)CC [Ac-S2P04-5-tBu] (Ac-CTV[X1]I-NH2)	191 ± 9	12.5	5.39	3.09	104	111.5%	89.7	105.63	12.664%	6.0395%	4.8945	3.4595%	-0.7428% and 1.396%	activity at 4 µM (SIRT2 [1]; inhibitor 4 µM): 3.78%
CCCCCCCCCCCCCC(=S)NCCCC[C@H](NC(=O)[C@@H](NC(=O)[C@@H](NC(=O)[C@@H](N)CC)[C@@H](C)O)C(C)C)C(=O)N[C@H](C(N)=O)[C@@H](C)CC [S2P04(Abu)-5-tMyK] (H-[Abu]TV[Lys(thiomyristoyl)]I-NH2)	–	–	–	–	–	–	–	–	–	–	–	–	–	IC50 (SIRT2 [2]): 18 ± 6 nM; activity at 0.000460773 µM (SIRT2 [2]; inhibitor 0.460773 nM): 83.3%; %Activity, SIRT2 (SIRT2 [2]; inhibitor 0.460773 nM, listed as S2P04 (Abu)-tMyK, 0.000460773 µM): 75.1766%; activity at 0.000921546 µM (SIRT2 [2]; inhibitor 0.921546 nM): 84.4%; %Activity, SIRT2 (SIRT2 [2]; inhibitor 0.921546 nM, listed as S2P04 (Abu)-tMyK, 0.000921546 µM): 83.3137%; activity at 0.00184309 µM (SIRT2 [2]; inhibitor 1.84309 nM): 92.7%; %Activity, SIRT2 (SIRT2 [2]; inhibitor 1.84309 nM, listed as S2P04 (Abu)-tMyK, 0.00184309 µM): 107.334%; activity at 0.00368618 µM (SIRT2 [2]; inhibitor 3.68618 nM): 92.3%; %Activity, SIRT2 (SIRT2 [2]; inhibitor 3.68618 nM, listed as S2P04 (Abu)-tMyK, 0.00368618 µM): 86.7202%; %Activity, SIRT2 (SIRT2 [2]; inhibitor 7.37237 nM, listed as S2P04 (Abu)-tMyK, 0.00737237 µM): 106.229% and 65.8212%; activity at 0.0147447 µM (SIRT2 [2]; inhibitor 14.7447 nM): 70.6%; %Activity, SIRT2 (SIRT2 [2]; inhibitor 14.7447 nM, listed as S2P04 (Abu)-tMyK, 0.0147447 µM): 50.6621%; activity at 0.058979 µM (SIRT2 [2]; inhibitor 58.979 nM): 27.7%; %Activity, SIRT2 (SIRT2 [2]; inhibitor 58.979 nM, listed as S2P04 (Abu)-tMyK, 0.058979 µM): 13.9723%; activity at 0.117958 µM (SIRT2 [2]; inhibitor 117.958 nM): 20.7%; %Activity, SIRT2 (SIRT2 [2]; inhibitor 117.958 nM, listed as S2P04 (Abu)-tMyK, 0.117958 µM): 15.5064%; %Activity, SIRT2 (SIRT2 [2]; inhibitor 235.916 nM, listed as S2P04 (Abu)-tMyK, 0.235916 µM): 2.564% and 11.5055%; %Activity, SIRT2 (SIRT2 [2]; inhibitor 471.832 nM, listed as S2P04 (Abu)-tMyK, 0.471832 µM): 2.292% and -2.292%; %Activity, SIRT2 (SIRT2 [2]; inhibitor 943.663 nM, listed as S2P04 (Abu)-tMyK, 0.943663 µM): 6.074% and 14.5226%
CCCC(=S)NCCCC[C@H](NC(=O)[C@H](Cc1ccccc1)NC(=O)[C@@H](NC(=O)[C@@H](N)CS)[C@@H](C)O)C(=O)N[C@H](C(=O)N1CCC[C@H]1C(=O)N[C@H](C(N)=O)[C@@H](C)O)C(C)C [S2P07-tBuK] (H-CTF[X1]VPT-NH2)	101 ± 13	9.45	6.71	4.93	–	98.946% and 68.389%	87.5	67.907	9.1144%	5.6905%	4.4406	0.3859% and 2.3975%	0.4825% and -0.01509%	–
